Measured values taken from ChEMBL document CHEMBL2150932, “Structure-activity relationships and molecular modeling of 1,2,4-triazoles as adenosine receptor antagonists” (ACS Med Chem Lett, 2012).

Key:
[1] = molecular target: T1, Adenosine receptor A2b (Homo sapiens) (UniProt P29275); assay: Antagonist activity at human A2B adenosine receptor expressed in CHO cells assessed as inhibition of NECA-induced cAMP accumulation at 10 uM after 20 mins; type: functional, cell-based
T1 sequence (whole entry): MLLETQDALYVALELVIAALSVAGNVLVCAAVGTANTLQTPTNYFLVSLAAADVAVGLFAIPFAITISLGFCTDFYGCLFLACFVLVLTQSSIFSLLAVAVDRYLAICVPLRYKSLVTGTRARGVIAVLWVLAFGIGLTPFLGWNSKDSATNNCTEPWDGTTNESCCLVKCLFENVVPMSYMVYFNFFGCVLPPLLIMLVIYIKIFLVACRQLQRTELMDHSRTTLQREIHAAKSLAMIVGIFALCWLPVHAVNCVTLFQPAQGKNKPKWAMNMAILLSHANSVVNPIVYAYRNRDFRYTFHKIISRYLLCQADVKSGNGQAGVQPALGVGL

[2] = molecular target: T2, Adenosine receptor A1 (Homo sapiens) (UniProt P30542); assay: Inhibition of human A1 adenosine receptor expressed in CHO cells at 10 uM after 60 mins by liquid scintillation counting; type: cell-based
T2 sequence (whole entry): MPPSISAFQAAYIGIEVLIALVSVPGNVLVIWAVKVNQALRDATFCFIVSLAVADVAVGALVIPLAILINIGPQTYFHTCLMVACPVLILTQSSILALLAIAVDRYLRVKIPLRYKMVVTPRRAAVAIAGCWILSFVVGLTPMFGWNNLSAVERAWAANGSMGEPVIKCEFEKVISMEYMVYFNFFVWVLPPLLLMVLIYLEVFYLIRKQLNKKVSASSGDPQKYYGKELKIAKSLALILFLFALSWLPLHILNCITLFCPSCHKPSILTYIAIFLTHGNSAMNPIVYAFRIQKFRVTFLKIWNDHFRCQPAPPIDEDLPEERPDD

Adenosine receptor A2a [3] = molecular target: T3, Adenosine receptor A2a (Homo sapiens, UniProt P29274); assay: Displacement of [3H]CGS21680 from human A2A adenosine receptor expressed in HEK293 cells after 60 mins by liquid scintillation counting; type: cell-based
T3 sequence (P29274 whole entry): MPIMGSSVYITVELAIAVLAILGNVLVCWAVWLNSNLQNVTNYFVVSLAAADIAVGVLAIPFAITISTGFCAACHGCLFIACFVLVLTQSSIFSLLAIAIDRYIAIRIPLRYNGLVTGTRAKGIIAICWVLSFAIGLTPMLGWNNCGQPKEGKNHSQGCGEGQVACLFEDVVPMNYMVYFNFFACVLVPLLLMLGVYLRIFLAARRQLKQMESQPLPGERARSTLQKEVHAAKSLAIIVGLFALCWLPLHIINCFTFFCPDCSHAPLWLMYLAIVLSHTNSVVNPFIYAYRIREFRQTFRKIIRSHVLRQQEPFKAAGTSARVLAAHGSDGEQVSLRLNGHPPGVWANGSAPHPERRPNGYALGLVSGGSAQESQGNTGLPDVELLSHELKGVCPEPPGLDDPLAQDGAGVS

Adenosine receptor A1 = molecular target: T4, Adenosine receptor A1 (Homo sapiens, UniProt P30542); assay: Inhibition of human A1 adenosine receptor expressed in CHO cells after 60 mins by liquid scintillation counting; type: cell-based
T4 sequence (P30542 whole entry): T2 sequence (whole entry)

Adenosine receptor A3 = molecular target: T5, Adenosine receptor A3 (Homo sapiens, UniProt P0DMS8); assay: Displacement of […] from human A3 adenosine receptor expressed in CHO cells after 60 mins by liquid scintillation counting; type: cell-based
T5 sequence (P0DMS8 whole entry): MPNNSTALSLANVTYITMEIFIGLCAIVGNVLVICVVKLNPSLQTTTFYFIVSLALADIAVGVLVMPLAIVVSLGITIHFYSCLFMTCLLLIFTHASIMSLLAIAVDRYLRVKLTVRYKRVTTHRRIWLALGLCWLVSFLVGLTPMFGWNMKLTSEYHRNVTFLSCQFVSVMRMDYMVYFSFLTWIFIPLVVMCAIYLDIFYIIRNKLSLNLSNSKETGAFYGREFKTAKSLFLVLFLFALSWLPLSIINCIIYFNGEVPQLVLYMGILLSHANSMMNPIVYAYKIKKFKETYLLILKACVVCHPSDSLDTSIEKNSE

Adenosine receptor A2a [4] = molecular target: T3, Adenosine receptor A2a; assay: Displacement of [3H]CGS21680 from human A2A adenosine receptor expressed in HEK293 cells at 10 uM after 60 mins by liquid scintillation counting; type: cell-based
[5] = molecular target: T6, Adenosine receptor A3 (Homo sapiens) (UniProt P0DMS8); assay: Displacement of […] from human A3 adenosine receptor expressed in CHO cells at 10 uM after 60 mins by liquid scintillation counting; type: cell-based
T6 sequence (whole entry): T5 sequence (P0DMS8 whole entry)

Compound | inhibition [1] | inhibition [2] | Ki (Adenosine receptor A2a [3]) | Ki (Adenosine receptor A1) | Ki (Adenosine receptor A3) | inhibition (Adenosine receptor A2a [4]) | inhibition [5]
CC(C)(Oc1ccc(Cl)cc1)C(=O)Nc1nc(-c2ccccc2)n[nH]1 | 6% | 41% | – | – | – | – | –
CC(=O)Nc1nnc(-c2ccccc2)[nH]1 | – | – | – | – | 300 nM | – | –
C[C@@H](Oc1cccc(Cl)c1)C(=O)Nc1nnc(-c2ccccc2)[nH]1 | – | – | 1000 nM | 1100 nM | 2600 nM | – | –
C[C@@H](Oc1ccccc1F)C(=O)Nc1nnc(-c2ccccc2)[nH]1 | – | – | 1000 nM | 3700 nM | 2600 nM | – | –
CCCC(=O)Nc1nc(-c2ccccc2)n[nH]1 | 5% | – | – | – | – | – | –
Cc1ccc(O[C@H](C)C(=O)Nc2nc(-c3ccco3)n[nH]2)cc1 | – | 37% | – | – | 5300 nM | 38% | –
Cc1cccc(-c2nnc(NC(=O)C(C)Oc3ccccc3)[nH]2)c1 (configuration not stated) | – | – | 2000 nM | – | 5900 nM | – | –
C[C@@H](Sc1ccccc1)C(=O)Nc1nnc(-c2ccccc2)[nH]1 | – | – | 2200 nM | 3300 nM | 1900 nM | – | –
CC(C)(Oc1ccc(Cl)cc1)C(=O)Nc1nnc(-c2ccccc2)[nH]1 | – | – | 8800 nM | – | 500 nM | – | –
Cc1cccc(O[C@H](C)C(=O)Nc2nnc(-c3ccccc3)[nH]2)c1 | – | – | 1200 nM | – | – | – | –
Cc1ccccc1OCC(=O)Nc1nnc(-c2ccccc2)[nH]1 | – | – | 1700 nM | – | 1000 nM | – | –
O=C(Nc1nc(-c2ccccc2)n[nH]1)C1CCCO1 (configuration not stated) | -7% | – | 5900 nM | 3200 nM | 3100 nM | – | –
Cc1cc(C)cc(OCC(=O)Nc2nnc(-c3ccccc3)[nH]2)c1 | – | – | 3200 nM | 1600 nM | 2700 nM | – | –
O=C(Nc1nnc(-c2ccccc2)[nH]1)c1ccccc1 | – | – | 400 nM | 1900 nM | 300 nM | – | –
CCCC(=O)Nc1nnc(-c2ccccc2)[nH]1 | – | – | 1100 nM | 800 nM | 200 nM | – | –
Cc1ccc(-c2nnc(NC(=O)COc3ccccc3)[nH]2)cc1 | – | – | 3600 nM | 6500 nM | 3200 nM | – | –

Compound | inhibition [1] | inhibition [2] | Ki (Adenosine receptor A2a [3]) | Ki (Adenosine receptor A1) | Ki (Adenosine receptor A3) | inhibition (Adenosine receptor A2a [4]) | inhibition [5]
COc1ccccc1NC(=O)Nc1nnc(-c2ccccc2)[nH]1 | – | – | 200 nM | – | 300 nM | – | –
Cc1cccc(O[C@H](C)C(=O)Nc2nc(-c3ccccc3)n[nH]2)c1 | 18% | – | – | – | – | – | –
O=C(Nc1nc(-c2ccccc2)n[nH]1)c1ccc(Cl)cc1 | -2% | 31% | – | – | – | – | –
O=C(Nc1nnc(-c2ccccc2)[nH]1)c1ccc(Cl)cc1 | – | – | 2800 nM | – | 200 nM | – | –
Cc1ccc(-c2n[nH]c(NC(=O)COc3ccccc3)n2)cc1 | 23% | – | – | – | – | – | –
C[C@@H](Oc1ccccc1F)C(=O)Nc1nc(-c2ccccc2)n[nH]1 | 31% | – | – | – | – | – | –
C[C@@H](Oc1ccc(Cl)cc1)C(=O)Nc1nc(-c2ccccc2)n[nH]1 | 51% | – | 4000 nM | 3900 nM | 2500 nM | – | –
O=C(COCc1ccccc1)Nc1nc(-c2ccccc2)n[nH]1 | 7% | – | 5000 nM | 8100 nM | 4600 nM | – | –
C[C@@H](Oc1cccc(Cl)c1)C(=O)Nc1nc(-c2ccccc2)n[nH]1 | 28% | – | – | – | – | – | –
Cc1ccccc1-c1n[nH]c(NC(=O)[C@@H](C)Oc2ccccc2)n1 | -3% | 6% | – | – | – | 26% | 48%
Cc1ccc(C(=O)Nc2nc(-c3ccccc3)n[nH]2)cc1 | 29% | – | 300 nM | 1300 nM | 100 nM | – | –
COc1ccccc1OCC(=O)Nc1nnc(-c2ccc(C)cc2)[nH]1 | – | – | – | – | 1000 nM | – | –
Cc1cc(C)cc(OCC(=O)Nc2nc(-c3ccccc3)n[nH]2)c1 | -5% | – | – | – | – | – | –
CC[C@@H](Oc1ccccc1)C(=O)Nc1nc(-c2ccccc2)n[nH]1 | -9% | – | 1400 nM | 1500 nM | 1900 nM | – | –
C[C@@H](Sc1ccccc1)C(=O)Nc1nc(-c2ccccc2)n[nH]1 | 21% | – | – | – | – | – | –
O=C(COc1ccccc1)Nc1nnc(-c2ccccc2)[nH]1 | – | – | 1800 nM | – | 2300 nM | – | –

The remaining lines, values ahead:

inhibition [1] | inhibition [2] | Ki (Adenosine receptor A2a [3]) | Ki (Adenosine receptor A1) | Ki (Adenosine receptor A3) | inhibition (Adenosine receptor A2a [4]) | inhibition [5] | Compound
23% | – | 1000 nM | 5200 nM | 3300 nM | – | – | C[C@@H](Oc1ccccc1)C(=O)Nc1nc(-c2ccccc2)n[nH]1
-6% | 29% | – | – | – | – | – | COc1ccc(CC(=O)Nc2nc(-c3ccccc3)n[nH]2)cc1
10% | 18% | – | – | – | 43% | – | CC(=O)Nc1nc(-c2ccccc2)n[nH]1
16% | – | 200 nM | 500 nM | 600 nM | – | – | COc1ccccc1C(=O)Nc1nc(-c2ccccc2)n[nH]1
– | 12% | 1800 nM | – | 6300 nM | – | – | Cc1cccc(-c2n[nH]c(NC(=O)[C@@H](C)Oc3ccccc3)n2)c1
11% | 2% | – | – | – | 2% | 50% | Cc1ccc(-c2n[nH]c(NC(=O)COc3ccccc3F)n2)cc1
8% | – | 2000 nM | 2300 nM | 1500 nM | – | – | Cc1cccc(OCC(=O)Nc2nc(-c3ccccc3)n[nH]2)c1
5% | 8% | – | – | – | – | – | Cc1cccc(-c2n[nH]c(NC(=O)C(C)Oc3ccccc3)n2)c1 (configuration not stated)
13% | 16% | – | – | – | – | – | Cc1ccccc1OCC(=O)Nc1nc(-c2ccccc2)n[nH]1
72% | – | – | – | – | – | – | O=C(Nc1nc(-c2ccccc2)n[nH]1)c1ccccc1
10% | 22% | – | – | – | – | – | COc1ccccc1NC(=O)Nc1nc(-c2ccccc2)n[nH]1
16% | 20% | – | – | – | – | – | O=C(COc1ccccc1)Nc1nc(-c2ccccc2)n[nH]1
9% | 46% | 3900 nM | – | 2200 nM | – | – | O=C(COc1ccc2c(c1)CCC2)Nc1nc(-c2ccccc2)n[nH]1
-10% | 2% | 3500 nM | – | 1500 nM | – | – | O=C(COc1ccccc1)Nc1nc(-c2ccc(F)cc2)n[nH]1
– | 13% | – | – | – | 23% | 32% | Cc1cccc(-c2n[nH]c(NC(=O)[C@H](C)Oc3ccccc3)n2)c1
-6% | 38% | 6400 nM | – | 1400 nM | – | – | Cc1ccc(O[C@H](C)C(=O)Nc2nc(-c3ccccc3)n[nH]2)cc1
43% | 49% | 1700 nM | – | 5500 nM | – | – | Cc1cccc(C)c1OCC(=O)Nc1nc(-c2ccccc2)n[nH]1
40% | 40% | 3400 nM | – | 8300 nM | – | – | O=C(CCc1ccccc1)Nc1nc(-c2ccccc2)n[nH]1
-10% | 8% | – | – | – | 49% | – | COc1ccccc1OCC(=O)Nc1nc(-c2ccc(C)cc2)n[nH]1
8% | 39% | 2500 nM | – | 300 nM | – | – | CCC(=O)Nc1nc(-c2ccccc2)n[nH]1
